Laboratory results as given in PMC7156724, “Potent BRD4 inhibitor suppresses cancer cell-macrophage interaction” (Nature Communications, 2020).
Several values for one entry are separate records, joined by “and”; a condition that tells them apart may be missing. Equal entries are not always repeated.

Tested on: ES-2 ovarian cancer
Assay: ES-2 ovarian tumor xenograft growth
Type: in vivo, mouse
Method: 4–6 weeks old female BALB/c nude mice were used for most experiments, with the exception of 6–8 weeks old female C57BL/6 mice were used for B16F10 experiments, and 6–8 weeks old male BALB/c nude mice and SD rats were used for pharmacokinetic experiments. All animals were purchased from Shanghai SIPPR-Bk Lab Animal Co., Ltd. All animals were housed under a regimen of 12 h light/12 h dark cycles and specific pathogen-free conditions. 5×10^6 NCI-H526, ES-2, MDA-MB231, A2780, A375, B16F10, and TMD-8 cells (0.1 ml) were injected subcutaneously into female nude mice. The melanoma patient-derived xenograft model was derived from a human melanoma sample (BRAF, NARS and NF1 wild type, and p53 mutant) removed from a patient in Xiangya Hospital. Surgically removed tumor fragments were implanted subcutaneously into female NSG mice. When the tumors grew to ~1000 mm^3, they were harvested and cryopreserved or immediately re-implanted for expansion or experiments. Mouse body weight and tumor sizes were measured every 3 days. Once the tumors grew to 150–200 mm^3, mice were treated with the compounds as described in the Figures. 1 × 10^6 A2780 cells (1 ml) were injected into the abdominal cavity of nude mice. Ascitic volume and tumor weight were measured by an electronic balance. All the procedures were evaluated and approved by the Institutional Animal Care and Use Committee of Central South University and Yale University.
Supplementary Figure 9. […]
PO, oral administration; QD, once daily; BID, twice daily; D, day. (c,d) Tumor growth curves for ES2 ovarian tumor (c), MDA-MB231 breast tumor (d) bearing mice treated with the indicated compounds for 21 days. Compounds were orally administrated once daily. Data are presented as mean ± SEM from 6 different mice. p values were calculated using two-tailed, unpaired t tests.
**, p<0.01; ***, p<0.001. Source data are provided as a Source Data file. […]

[1] = ES-2, 1mg/kg p.o. QD x 21D, day 4, group AVG
[2] = ES-2, 1mg/kg p.o. QD x 21D, day 4, individual animals
[3] = ES-2, 1mg/kg p.o. QD x 21D, day 7, group AVG
[4] = ES-2, 1mg/kg p.o. QD x 21D, day 7, individual animals
[5] = ES-2, 1mg/kg p.o. QD x 21D, day 11, group AVG
[6] = ES-2, 1mg/kg p.o. QD x 21D, day 11, individual animals
[7] = ES-2, 1mg/kg p.o. QD x 21D, day 14, group AVG
[8] = ES-2, 1mg/kg p.o. QD x 21D, day 14, individual animals
[9] = ES-2, 1mg/kg p.o. QD x 21D, day 17, group AVG
[10] = ES-2, 1mg/kg p.o. QD x 21D, day 17, individual animals
[11] = ES-2, 1mg/kg p.o. QD x 21D, day 20, group AVG
[12] = ES-2, 1mg/kg p.o. QD x 21D, day 20, individual animals
[13] = ES-2, 3mg/kg p.o. QD x 21D, day 0, group AVG
[14] = ES-2, 3mg/kg p.o. QD x 21D, day 0, individual animals
[15] = ES-2, 3mg/kg p.o. QD x 21D, day 4, group AVG
[16] = ES-2, 3mg/kg p.o. QD x 21D, day 4, individual animals
[17] = ES-2, 3mg/kg p.o. QD x 21D, day 7, group AVG
[18] = ES-2, 3mg/kg p.o. QD x 21D, day 7, individual animals
[19] = ES-2, 3mg/kg p.o. QD x 21D, day 11, group AVG
[20] = ES-2, 3mg/kg p.o. QD x 21D, day 11, individual animals
[21] = ES-2, 3mg/kg p.o. QD x 21D, day 14, group AVG
[22] = ES-2, 3mg/kg p.o. QD x 21D, day 14, individual animals
[23] = ES-2, 3mg/kg p.o. QD x 21D, day 17, group AVG
[24] = ES-2, 3mg/kg p.o. QD x 21D, day 17, individual animals
[25] = ES-2, 3mg/kg p.o. QD x 21D, day 20, group AVG
[26] = ES-2, 3mg/kg p.o. QD x 21D, day 20, individual animals

SMILES: Cc1nnn(C)c1-c1cnc2c3c4cnn(C)c4ccc3n([C@H](c3ccccc3)C3CCOCC3)c2c1 [NHWD-870]
- Tumor volume (ES-2, 1mg/kg p.o. QD x 21D, day 0, individual animals): 161.981 mm^3 and 208.246 mm^3 and 257.236 mm^3 and 142.384 mm^3 and 223.655 mm^3 and 103.5 mm^3
- % Tumor growth, AVG [1]: 71.8081%
- Tumor volume, AVG [1]: 319.202 mm^3
- % Tumor growth [2]: 19.7778% and 126.134% and 74.5915% and 55.5126% and 76.849% and 77.9831%
- Tumor volume [2]: 194.017 mm^3 and 470.917 mm^3 and 449.112 mm^3 and 221.425 mm^3 and 395.531 mm^3 and 184.213 mm^3
- % Tumor growth, AVG [3]: 143.924%
- Tumor volume, AVG [3]: 449.139 mm^3
- % Tumor growth [4]: 108.101% and 224.596% and 137.285% and 85.7809% and 134.14% and 173.642%
- Tumor volume [4]: 337.084 mm^3 and 675.959 mm^3 and 610.381 mm^3 and 264.522 mm^3 and 523.665 mm^3 and 283.22 mm^3
- % Tumor growth, AVG [5]: 266.816%
- Tumor volume, AVG [5]: 666.569 mm^3
- % Tumor growth [6]: 228.373% and 360.792% and 253.375% and 196.866% and 222.989% and 338.501%
- Tumor volume [6]: 531.902 mm^3 and 959.584 mm^3 and 909.007 mm^3 and 422.689 mm^3 and 722.381 mm^3 and 453.85 mm^3
- % Tumor growth, AVG [7]: 321.081%
- Tumor volume, AVG [7]: 765.856 mm^3
- % Tumor growth [8]: 250.605% and 403.815% and 289.634% and 267.746% and 320.675% and 394.009%
- Tumor volume [8]: 567.913 mm^3 and 1049.18 mm^3 and 1002.28 mm^3 and 523.611 mm^3 and 940.859 mm^3 and 511.301 mm^3
- % Tumor growth, AVG [9]: 435.897%
- Tumor volume, AVG [9]: 1001.66 mm^3
- % Tumor growth [10]: 362.904% and 591.91% and 468.225% and 329.053% and 437.775% and 425.513%
- Tumor volume [10]: 749.817 mm^3 and 1440.88 mm^3 and 1461.68 mm^3 and 610.902 mm^3 and 1202.76 mm^3 and 543.908 mm^3
- % Tumor growth, AVG [11]: 569.584%
- Tumor volume, AVG [11]: 1249.88 mm^3
- % Tumor growth [12]: 729.742% and 506.506% and 450.639% and 539.702% and 621.332%
- Tumor volume [12]: 1727.91 mm^3 and 1560.15 mm^3 and 784.021 mm^3 and 1430.72 mm^3 and 746.582 mm^3
- % Tumor growth, AVG [13]: 0%
- Tumor volume, AVG [13]: 180.514 mm^3
- % Tumor growth [14]: 0%
- Tumor volume [14]: 100.979 mm^3 and 154.514 mm^3 and 151.014 mm^3 and 168.003 mm^3 and 255.303 mm^3 and 253.274 mm^3
- % Tumor growth, AVG [15]: 106.339%
- Tumor volume, AVG [15]: 355.904 mm^3
- % Tumor growth [16]: 103.958% and 55.5923% and 228.844% and 138.521% and 84.9035% and 26.2158%
- Tumor volume [16]: 205.955 mm^3 and 240.412 mm^3 and 496.599 mm^3 and 400.722 mm^3 and 472.064 mm^3 and 319.672 mm^3
- % Tumor growth, AVG [17]: 146.015%
- Tumor volume, AVG [17]: 424.47 mm^3
- % Tumor growth [18]: 172.578% and 87.9551% and 265.997% and 159.587% and 128.487% and 61.4849%
- Tumor volume [18]: 275.247 mm^3 and 290.417 mm^3 and 552.706 mm^3 and 436.115 mm^3 and 583.334 mm^3 and 408.999 mm^3
- % Tumor growth, AVG [19]: 196.378%
- Tumor volume, AVG [19]: 514.744 mm^3
- % Tumor growth [20]: 265.602% and 115.285% and 217.088% and 283.945% and 177.512% and 118.838%
- Tumor volume [20]: 369.182 mm^3 and 332.645 mm^3 and 478.846 mm^3 and 645.04 mm^3 and 708.495 mm^3 and 554.259 mm^3
- % Tumor growth, AVG [21]: 274.736%
- Tumor volume, AVG [21]: 656.818 mm^3
- % Tumor growth [22]: 256.941% and 190.731% and 428.695% and 356.714% and 248.463% and 166.876%
- Tumor volume [22]: 360.436 mm^3 and 449.22 mm^3 and 798.401 mm^3 and 767.293 mm^3 and 889.635 mm^3 and 675.926 mm^3
- % Tumor growth, AVG [23]: 372.557%
- Tumor volume, AVG [23]: 841.506 mm^3
- % Tumor growth [24]: 349.385% and 221.259% and 495.296% and 524.547% and 433.889% and 210.963%
- Tumor volume [24]: 453.785 mm^3 and 496.39 mm^3 and 898.977 mm^3 and 1049.26 mm^3 and 1363.03 mm^3 and 787.588 mm^3
- % Tumor growth, AVG [25]: 570.165%
- Tumor volume, AVG [25]: 1173.35 mm^3
- % Tumor growth [26]: 589.68% and 492.445% and 716.71% and 706.345% and 598.649% and 317.161%
- Tumor volume [26]: 696.433 mm^3 and 915.41 mm^3 and 1233.34 mm^3 and 1354.69 mm^3 and 1783.67 mm^3 and 1056.56 mm^3
- effect on tumor growth (ES-2 ovarian cancer, oral once daily 21 days): strong tumor-suppressive effects
